Measured values taken from patent US9079870B2, “Thiol mediated/activated prodrugs of sulfur dioxide (SO2) having anti-bacterial activity” (priority 2012, dated 2015).
In brackets after ≈: the same amount, converted by molar mass. Several values for one entry are separate records, joined by “and”; a condition that tells them apart may be missing. Identical values can stand only once. Like-named read-outs stand apart in the source and are kept apart here.

Legend:
[1] = Cysteine-activated sulfur dioxide release, ion chromatography analysis of sulfite; conditions: for SO2 yield, 5 min: 5 min after treatment of compound (100 1M) with 10 equiv of cysteine in pH 7.4 phosphate buffer; for SO2 yield in 30 min (%): 30 min after commencement of the reaction with cysteine (10 equiv); for SO2 yield in 30 min (%) / Max SO2 yield: pH 7.4; for Max SO2 yield: sum of sulfite and sulfate, compound 100 μM, cysteine 10 equiv; for % SO2 (30 min): 30 min after commencement of the reaction with thiol, per mole of compound; for K (min−1), rate of sulfite release: compound (100 μM), cysteine (10 equiv), pH 7.4 phosphate buffer (20 mM)
[2] = 100 µM, pH 7.4
[3] = system: Mycobacterium tuberculosis H37Rv strain; assay: Antimycobacterial activity assay (MIC, 7H11 agar); assay type: cell-based; conditions: Mtb H37Rv
[4] = Table 4; values are for the amine without a DNs group; cited from earlier work
S. aureus ATCC 29213 = assay: Antibacterial activity (MIC) against S. aureus; assay type: cell-based
From the text: (§1) The antibacterial activity of thiol mediated/activated prodrugs of SO2 i.e. 2,4-dinitrophenylsulfonamide related compounds against the gram positive pathogenic bacteria selected from the group S. aureus, E. feacalis is given herein below Table 2a.

[5] = system: human embryonic kidney 293 cells (HEK); assay: Cell viability assay
E. feacalis ATCC 29212 = assay: Antibacterial activity (MIC) against E. feacalis; assay type: cell-based
From the text: as §1

[6] = Pararosaniline-based colorimetric assay for sulfur dioxide; assay type: physicochemical; conditions: detected with pararosaniline-based colorimetric assay; 10 equiv cysteine, pH 7.4
[7] = Kinetics of thiol-mediated decomposition of compound (7), HPLC and ion chromatography; assay type: physicochemical; conditions: curve fitting, FIG. 3
Description: FIG. 3 depicts kinetics of decomposition of compound (7) to produce sulfur dioxide and 2-hydroxyethylthio-2,4-dinitrobenzene (7y), where disappearance of compound (7) and appearance of (7y) was followed by HPLC analysis. Production of sulfite was monitored by ion chromatography analysis. Curve fitting afforded first order rate constant for: appearance of (7y) as 0.011 min^−1; and appearance of sulfite as 0.014 min^−1.
Alternatively, a detailed kinetic analysis of thiol-mediated decomposition and sulfite generation from compound (7) is represented in FIG. 1b, wherein compound (7) decomposed to simultaneously produce sulfur dioxide, and by-products like 4-methoxyaniline (7x) and 2-hydroxyethylthio-2,4-dinitrobenzene (7y). Further the rate determining step in the said mechanism was the step of protonation (either through proton transfer or addition of proton).

[8] = 30 min after treatment of compound (100 1M) with 10 equiv of cysteine in pH 7.4 phosphate buffer
[9] = Table 3, 30 min after treatment of compound (100 μM) with 10 equiv of cysteine in pH 7.4 phosphate buffer
[10] = Mycobacterium tuberculosis, H37RV, 672 h, Table 3, inhibit 99% of bacterial growth
[11] = Mycobacterium tuberculosis, H37RV, Table 2b
[12] = Mycobacterium tuberculosis, H37RV, Table 2b, inhibit 99% of bacterial growth
[13] = Mycobacterium tuberculosis, H37RV, Table 3
[14] = Mycobacterium tuberculosis, H37RV, Table 3, inhibit 99% of bacterial growth
[15] = Staphylococcus aureus, ATCC29213; read-out: MIC (μg/mL) S. aureus ATCC 29213
[16] = Enterococcus faecalis, ATCC29212; read-out: MIC (μg/mL) E. feacalis ATCC 29212
[17] = Mycobacterium tuberculosis, H37RV, 672 h, Table 3, inhibit 99% of bacterial growth, read-out: MIC

O=[N+]([O-])c1ccc(S(=O)(=O)NCc2ccccc2)c([N+](=O)[O-])c1 [Compound 1, N-benzyl-2,4-dinitrophenylsulfonamide]
SO2 yield, 5 min [1]: 83 µM
SO2 yield in 30 min (%) [1]: ~100%
SO2 yield, 30 min [1, 8]: 100 µM
SO2 yield, 30 min [1, 9]: 100 µM
Max SO2 yield [1]: 100 µM
t1/2 (min) of SO2 generation [2]: ~2 min
t1/2 (min) of SO2 generation ([2]; buffer): ~2 g·min
MIC [3, 10]: ≤ 25 µg/mL
MIC [3, 11]: 0.15 µM
MIC [3, 12]: ~0.05 µg/mL
MIC [3, 13]: 0.15 µM
MIC [3, 14]: 0.05 µg/mL
pKaH [4]: 9.34
MIC (S. aureus ATCC 29213; [15]): > 16 µg/mL
IC50 ([5]; Homo sapiens, HEK293, read-out: IC50, cell viability): 7 µM
selectivity (SI) toward Mtb over human embryonic kidney cells ([5]; based on the MIC and IC50): ~50 and 47
MIC (E. feacalis ATCC 29212; [16]): > 16 µg/mL
SO2 source [6]: yes

COc1ccc(N(CCCN(Cc2ccccc2)S(=O)(=O)c2ccc([N+](=O)[O-])cc2[N+](=O)[O-])S(=O)(=O)c2ccc([N+](=O)[O-])cc2[N+](=O)[O-])cc1 [Compound 37, N-benzyl-N-(3-(N-(4-methoxyphenyl)-2,4-dinitrophenylsulfonamido)propyl)-2,4-dinitrobenzenesulfonamide]
% SO2 (30 min) [1]: 183%
melting point: 118 to 120 °C

O=[N+]([O-])c1ccc(S(=O)(=O)N(CCCN(Cc2ccccc2)S(=O)(=O)c2ccc([N+](=O)[O-])cc2[N+](=O)[O-])Cc2ccccc2)c([N+](=O)[O-])c1 [Compound 34, N,N′-(propane-1,3-diyl)bis(N-benzyl-2,4-dinitrobenzenesulfonamide)]
% SO2 (30 min) [1]: 152%
melting point: 186 to 189 °C

CCCN(Cc1ccccc1)S(=O)(=O)c1ccc([N+](=O)[O-])cc1[N+](=O)[O-] [Compound 16, (N-benzyl, N-propyl) 2,4-dinitrophenylsulfonamide]
SO2 yield, 5 min [1]: 68 µM
SO2 yield, 30 min [1, 8]: 96 µM
SO2 yield, 30 min [1, 9]: 96 µM
K (min−1), rate of sulfite release [1]: 0.1517 min⁻¹
Max SO2 yield [1]: 96 µM
MIC ([3]; Table 2b, read-out: MIC): 8.25 µM
MIC ([3]; Table 3, read-out: MIC): 8.25 µM
pKaH [4]: 9.68
SO2 source [6]: yes

O=[N+]([O-])c1ccc(S(=O)(=O)N(CCCN(c2ccccc2F)S(=O)(=O)c2ccc([N+](=O)[O-])cc2[N+](=O)[O-])Cc2ccccc2)c([N+](=O)[O-])c1 [Compound 39, N-benzyl-N-(3-(N-(2-fluorophenyl)-2,4-dinitrophenylsulfonamido)propyl)-2,4-dinitrobenzenesulfonamide]
% SO2 (30 min) [1]: 141%
melting point: 151 to 153 °C

CN(Cc1ccccc1)S(=O)(=O)c1ccc([N+](=O)[O-])cc1[N+](=O)[O-] [Compound 15, (N-benzyl, N-methyl) 2,4-dinitrophenylsulfonamide]
SO2 yield, 5 min [1]: 79 µM
SO2 yield, 30 min [1, 8]: 100 µM
SO2 yield, 30 min [1, 9]: 100 µM
Max SO2 yield [1]: 100 µM
t1/2 (min) of SO2 generation [2]: 4 min
t1/2 (min) of SO2 generation ([2]; buffer): ~4 g·min
MIC [3, 10]: ≤ 25 µg/mL
MIC [3, 11]: 1.1 µM
MIC [3, 12]: 0.4 µg/mL
MIC [3, 13]: 1.1 µM
MIC [3, 14]: 0.4 µg/mL
MIC ([3]; Mycobacterium tuberculosis, H37RV, text to Table 2b): < 1000 µg/mL
pKaH [4]: 9.58
MIC (S. aureus ATCC 29213; [15]): 8 µg/mL (≈ 22.8 µM)
MIC (E. feacalis ATCC 29212; [16]): > 16 µg/mL
SO2 source [6]: yes

O=[N+]([O-])c1ccc(S(=O)(=O)N(CCCN(c2ccccc2)S(=O)(=O)c2ccc([N+](=O)[O-])cc2[N+](=O)[O-])Cc2ccccc2)c([N+](=O)[O-])c1 [Compound 38, N-benzyl-N-(3-(2,4-dinitro-(N-phenyl)phenylsulfonamido)propyl)-2,4 dinitro benzene sulfonamide]
% SO2 (30 min) [1]: 160%
melting point: 151 to 153 °C

COc1cccc(N(CCCN(Cc2ccccc2)S(=O)(=O)c2ccc([N+](=O)[O-])cc2[N+](=O)[O-])S(=O)(=O)c2ccc([N+](=O)[O-])cc2[N+](=O)[O-])c1 [Compound 36, N-benzyl-N-(3-(N-(3-methoxyphenyl)-2,4-dinitrophenylsulfonamido)propyl)-2,4-dinitrobenzenesulfonamide]
% SO2 (30 min) [1]: 184%
melting point: 108 to 110 °C

COc1ccc(NS(=O)(=O)c2ccc([N+](=O)[O-])cc2[N+](=O)[O-])cc1 [Compound 7, N-(4-methoxyphenyl) 2,4-dinitrophenylsulfonamide]
first order rate constant for appearance of (7y) ([7]; HPLC analysis): 0.011 min⁻¹
first order rate constant for appearance of sulfite ([7]; ion chromatography analysis): 0.014 min⁻¹
SO2 yield, 5 min [1]: 39 µM
SO2 yield, 30 min [1, 8]: 80 µM
SO2 yield, 30 min [1, 9]: 79.5 µM
K (min−1), rate of sulfite release [1]: 0.0575 min⁻¹
Max SO2 yield [1]: 97 µM
t1/2 (min) of SO2 generation ([2]; buffer): 12 min
MIC [3, 10]: ≤ 25 µg/mL
MIC [3, 11]: 4.4 µM
MIC [3, 12]: 1.56 µg/mL
MIC [3, 13]: 4.4 µM
MIC [3, 14]: 1.56 µg/mL
pKaH [4]: 5.29
MIC (S. aureus ATCC 29213; [15]): > 16 µg/mL
MIC (E. feacalis ATCC 29212; [16]): > 16 µg/mL
SO2 source [6]: yes

O=[N+]([O-])c1ccc(S(=O)(=O)N2CCCCC2)c([N+](=O)[O-])c1 [Compound 24, 1-[(2,4-dinitrophenyl)sulfonyl]piperidine]
SO2 yield, 30 min [1, 9]: 91 µM
melting point: 138 °C
MIC [3, 17]: ≤ 25 µg/mL
MIC [3, 13]: 2.5 µM
MIC [3, 14]: 0.78 µg/mL
MIC (S. aureus ATCC 29213; Staphylococcus aureus, ATCC29213, read-out: MIC (μg/mL) S. aureus ATCC 29213): 4 µg/mL (≈ 12.7 µM)
MIC (E. feacalis ATCC 29212; Enterococcus faecalis, ATCC29212, read-out: MIC (μg/mL) E. feacalis ATCC 29212): > 16 µg/mL
SO2 source [6]: yes

O=[N+]([O-])c1ccc(S(=O)(=O)Nc2ccccc2)c([N+](=O)[O-])c1 [Compound 6, N-phenyl, 2,4-dinitrophenylsulfonamide]
SO2 yield, 5 min [1]: 37 µM
SO2 yield in 30 min (%) [1]: 55%
SO2 yield, 30 min [1, 8]: 55 µM
SO2 yield, 30 min [1, 9]: 55 µM
K (min−1), rate of sulfite release [1]: 0.0273 min⁻¹
Max SO2 yield [1]: 94 µM
t1/2 (min) of SO2 generation ([2]; buffer): 25 min
MIC [3, 10]: ≤ 25 µg/mL
MIC [3, 11]: 9.69 µM
MIC [3, 12]: 3.13 µg/mL
MIC [3, 13]: 9.7 µM
MIC [3, 14]: 3.13 µg/mL
pKaH [4]: 4.64
SO2 source [6]: yes

O=[N+]([O-])c1ccc(S(=O)(=O)Nc2cccc(F)c2)c([N+](=O)[O-])c1 [Compound 9, N-(3-fluorophenyl) 2,4-dinitrophenylsulfonamide]
SO2 yield, 5 min [1]: 5 µM
SO2 yield, 30 min [1, 8]: 24 µM
SO2 yield, 30 min [1, 9]: 24 µM
K (min−1), rate of sulfite release [1]: 0.0106 min⁻¹
Max SO2 yield [1]: 86 µM
MIC ([3]; Table 2b, read-out: MIC): 73 µM
MIC ([3]; Table 3, read-out: MIC): 73 µM
pKaH [4]: 3.38
SO2 source [6]: yes

O=[N+]([O-])c1ccc(S(=O)(=O)N2CCOCC2)c([N+](=O)[O-])c1 [Compound 23, 4-[(2,4-dinitrophenyl)sulfonyl]morpholine]
SO2 yield, 30 min [1, 9]: 96 µM
melting point: 144 to 145 °C
MIC [3, 17]: ≤ 25 µg/mL
MIC [3, 13]: 19.6 µM
MIC [3, 14]: 6.25 µg/mL
SO2 source [6]: yes
